Assay results taken from ChEMBL document CHEMBL3046784, “Exploring QSAR of antiamoebic agents of isolated natural products by MLR, ANN, and RTO” (Med Chem Res, 2012).
Converted amounts (≈) assume the structure as drawn.

Tested on: Entamoeba histolytica
Assay: Antiamoebic activity against Entamoeba histolytica
Format: functional, organism-based
Details: not given

SMILES	IC50
COc1ccc2cc1Oc1ccc(cc1)C[C@H]1c3cc(c(OC)cc3CCN1C)Oc1c(OC)c(OC)cc3c1[C@H](C2)N(C)CC3 (stereo in doubt; 146) [FANCHININ]	10.51 µg/mL (≈ 16.9 µM)

Same assay, conditions: Entamoeba histolytica; read-out: IC50

SMILES	IC50
Oc1cc(O)c2c(c1)O[C@H](c1ccc(O)c(O)c1)[C@@H](O)C2 [CIANIDANOL]	65.5 µg/mL (≈ 226 µM)
O=c1cc(-c2ccc(O)cc2)oc2cc(O)cc(O)c12 [APIGENIN]	12.7 µg/mL (≈ 47 µM)
CC[C@](C)(O)C(=O)O[C@H]1C(=O)O[C@@H]2C[C@H]3C(C)=CC(=O)[C@@H](O)[C@]3(C)[C@H]3[C@@]4(O)OC[C@]32[C@@H]1[C@@H](C)[C@H]4O [GLAUCARUBINONE]	0.168 µg/mL (≈ 0.34 µM)
C=C[C@H]1CN2CCc3c([nH]c4ccccc34)[C@@H]2C[C@@H]1C[C@@H]1NCCc2c1[nH]c1cccc(OC)c21 [3ALPHA-17BETA-CINCHOPHYLLINE]	0.96 µg/mL (≈ 2.06 µM)
CC1=C[C@H](O)[C@@H](O)[C@]2(C)[C@H]3[C@@]4(O)OC[C@]35[C@H]([C@@H](C)[C@H]4O)[C@@H](O)C(=O)O[C@@H]5C[C@@H]12 [GLAUCARUBOL]	2 µg/mL (≈ 5.04 µM)
CC[C@H]1CN2CCc3c([nH]c4ccccc34)[C@@H]2C[C@H]1C[C@H]1c2[nH]c3ccccc3c2CCN1C.O=C(O)C(=O)O	0.65 µg/mL
C=C[C@H]1CN2CCc3c([nH]c4ccccc34)[C@@H]2C[C@@H]1C[C@H]1c2[nH]c3ccccc3c2CCN1C [USAMBARINE]	0.46 µg/mL (≈ 1.02 µM)
COc1ccc2cc1Oc1ccc(cc1)C[C@H]1c3c(cc(OC)c4c3Oc3cc5c(cc3O4)CCN(C)[C@H]5C2)CCN1C [ISOTRILOBINE]	6.22 µg/mL (≈ 10.8 µM)
C/C=C(/C)C(=O)O[C@H]1[C@@H]2[C@H](C)C(=O)O[C@@H]2C[C@@H](C)[C@@H]2C=CC(=O)[C@]21C [BREVILIN A]	3.11 µg/mL (≈ 8.98 µM)
C[C@H]1O[C@H](Oc2c(-c3ccc(O)c(O)c3)oc3cc(O)cc(O)c3c2=O)[C@@H](O)[C@@H](O)[C@@H]1O [QUERCETIN-3-O-RHAMNOSIDE]	84.7 µg/mL (≈ 189 µM)
O=c1ccc2nccc3c4ccccc4n1c23 [CANTHIN-6-ONE]	23 µg/mL (≈ 104 µM)
COc1ccc2cc1Oc1ccc(cc1)C[C@@H]1c3cc(c(OC)cc3CCN1C)Oc1c(OC)c(OC)cc3c1[C@H](C2)N(C)CC3 [ISOTETRANDRINE]	13.8 µg/mL (≈ 22.2 µM)
O=c1c(O[C@@H]2O[C@H](CO)[C@H](O)[C@H](O)[C@H]2O)c(-c2ccc(O)c(O)c2)oc2cc(O)cc(O)c12 [HYPEROSIDE]	144 µg/mL (≈ 309 µM)
C=C[C@H]1CN2CC[C@@]3(C(=O)Nc4cc(O)ccc43)[C@@H]2C[C@@H]1C[C@H]1c2[nH]c3ccccc3c2CCN1C [STRYCHNOFOLINE]	25.1 µg/mL (≈ 51.9 µM)
COc1c(O)cc2oc(-c3ccc(O)cc3)c(OC)c(=O)c2c1O [3,6-DIMETHOXY KAEMPFEROL]	105 µg/mL (≈ 319 µM)
COc1cc2c3cc1Oc1c(OC)c(OC)c(O)c4c1[C@H](Cc1ccc(cc1)Oc1cc(ccc1O)C[C@@H]3N(C)CC2)N(C)CC4 [THALISOPIDINE]	50 µg/mL (≈ 80 µM)
CC[C@H]1CN2CCC3c4ccc(O)c([C@@H]5CCCN5C)c4NC3[C@@H]2C[C@@H]1C[C@H]1c2[nH]c3ccccc3c2CCN1C (stereo partly drawn) [ISOSTRYCHNOPENTAMINE]	10.4 µg/mL (≈ 18.8 µM)
C=C[C@H]1CN2CC[C@H]1C[C@@H]2[C@@H](O)c1ccnc2ccc(OC)cc12 [QUINIDINE]	16.6 µg/mL (≈ 51.2 µM)
COc1cc2c3c4c1Oc1cc5c(cc1O4)[C@H](Cc1ccc(O)c(c1)Oc1ccc(cc1)C[C@@H]3N(C)CC2)N(C)CC5 [COCSULINE]	13.2 µg/mL (≈ 23.5 µM)
C=C[C@H]1CN2CCc3c([nH]c4c([C@H]5CCCN5C)c(O)ccc34)[C@@H]2C[C@@H]1C[C@H]1c2[nH]c3ccccc3c2CCN1C [STRYCHNOPENTAMINE]	7.7 µg/mL (≈ 14 µM)
CC[C@H](CC[C@@H](C)[C@H]1CC[C@H]2[C@@H]3CC=C4C[C@@H](O)CC[C@]4(C)[C@H]3CC[C@]12C)C(C)C [BETA-SITOSTEROL]	52.3 µg/mL (≈ 126 µM)
C=C[C@H]1CN2CC[C@H]1C[C@H]2[C@H](O)c1ccnc2ccc(OC)cc12 [QUININE]	14.8 µg/mL (≈ 45.6 µM)
O=c1cc(-c2ccc(O)c(O)c2)oc2cc(O)cc(O)c12 [LUTEOLIN]	17.8 µg/mL (≈ 62.2 µM)
C/C=C1\CN2CC[C@]34c5ccccc5N5[C@@H]([C@H]6[C@@H]7N(C(C)=O)c8ccccc8[C@@]78CCN7C/C(=C\C)[C@@H]6C[C@H]78)OC[C@@H]([C@H]53)[C@H]1C[C@H]24 [STRYCHNOBILINE]	21.5 µg/mL (≈ 35 µM)
COC(=O)[C@]12OC[C@]34[C@H]([C@@H](O)[C@@H]1O)[C@@]1(C)C=C(O[C@@H]5O[C@H](CO)[C@@H](O)[C@H](O)[C@H]5O)C(=O)[C@@H](C)[C@@H]1C[C@H]3OC(=O)[C@H](OC(C)=O)[C@@H]24 [YADANZIOSIDE F]	2.33 µg/mL (≈ 3.63 µM)
COC(=O)[C@]12OC[C@]34[C@H]([C@@H](O)[C@@H]1O)[C@@]1(C)CC(=O)C(O)=C(C)[C@@H]1C[C@H]3OC(=O)[C@H](OC(=O)C=C(C)C)[C@@H]24 [BRUSATOL]	0.062 µg/mL (≈ 0.119 µM)

SMILES	IC50
CC[C@](C)(O)C(=O)O[C@H]1C(=O)O[C@@H]2C[C@H]3C(C)=C[C@H](O)[C@@H](O)[C@]3(C)[C@H]3[C@]4(O)OC[C@]32[C@@H]1[C@@H](C)[C@H]4O [GLAUCARUBIN]	1.57 µg/mL (≈ 3.16 µM)
Cc1cc(O)c2c(c1)C(=O)c1cccc(O)c1C2=O [CHRYSOPHANOL]	6.21 µg/mL (≈ 24.4 µM)
O=c1cc(-c2ccc(O)cc2)oc2cc(OC3O[C@H](CO)[C@@H](O)[C@H](O)[C@H]3O)cc(O)c12 (stereo partly drawn) [APIGENIN-7-O-GLUCOSIDE]	59.8 µg/mL (≈ 138 µM)
CC[C@H]1CN2CCc3cc(OC)c(OC)cc3[C@@H]2C[C@@H]1C[C@H]1NCCc2cc(O)c(OC)cc21 [CEPHAELINE]	3.26 µg/mL (≈ 6.99 µM)
COc1cc(O)c2c(c1)O[C@H](c1ccccc1)CC2=O [PINOSTROBIN]	184 µg/mL (≈ 682 µM)
O=c1cc(-c2ccc(O)c(O)c2)oc2cc(O[C@@H]3O[C@H](CO)[C@@H](O)[C@H](O)[C@H]3O)cc(O)c12 [GALUTEOLIN]	44.7 µg/mL (≈ 99.7 µM)
C[C@H]1O[C@H](Oc2c(-c3ccc(O)cc3)oc3cc(O)cc(O)c3c2=O)[C@@H](O)[C@@H](O)[C@@H]1O [KAEMPFEROL-3-O-RHAMNOSIDE]	64.7 µg/mL (≈ 150 µM)
C[C@@H]1N=C[C@]23CC[C@H]4[C@@H](CC=C5C[C@@H](N)CC[C@@]54C)[C@@H]2CC[C@H]13 [CONCKURCHINE]	12 µg/mL (≈ 38.4 µM)
C[C@@H]1N=C[C@]23C[C@@H](O)[C@H]4[C@@H](CCC5=CC(=O)C=C[C@@]54C)[C@@H]2CC[C@H]13 [HOLANAMINE]	3.96 µg/mL (≈ 12.2 µM)
C/C=C1/CN2CCc3c(n(C)c4ccccc34)[C@@H]2C[C@@H]1Cc1nccc2c1[nH]c1ccccc12 [NBETA-METHYL USAMBARENSINE]	4.12 µg/mL (≈ 9.23 µM)
C/C=C1/CN2CC[C@]34c5ccccc5N(C(C)=O)C3[C@H](CO)[C@H]1C[C@H]24 (stereo partly drawn) [ISORETULINE]	21.9 µg/mL (≈ 64.7 µM)
Cc1cc2c(C(C)C)c(O)c(O)c(C=O)c2c(O)c1-c1c(C)cc2c(C(C)C)c(O)c(O)c(C=O)c2c1O [GOSSYPOL]	0.00777 µg/mL (≈ 0.015 µM)
C/C=C1/CN2CC[C@]34c5ccccc5N(C(C)=O)[C@H]3[C@H]([C@H]3OC[C@@H]5[C@H]6C[C@@H]7N(CC[C@@]78c7ccccc7N3[C@@H]58)C[C@H]6CC)[C@H]1C[C@H]24 [ISOSTRYCHNOBILINE]	20.9 µg/mL (≈ 33.8 µM)
COc1ccc2cc1Oc1ccc(cc1)C[C@H]1c3cc(c(OC)cc3CCN1C)Oc1c(O)c(OC)cc3c1[C@H](C2)N(C)CC3 [FANGCHINOLINE]	14.7 µg/mL (≈ 24.2 µM)
Oc1cc(O)c2c(c1)O[C@H](c1cc(O)c(O)c(O)c1)[C@H](O)C2 [EPIGALLOCATECHIN]	6.89 µg/mL (≈ 22.5 µM)
C/C=C(/C=O)[C@@H]1C[C@H]2c3c(c4ccccc4n3[C@@H](O)C1)CCN2C [AKAGERINE]	17.1 µg/mL (≈ 52.7 µM)
O=c1c(O)c(-c2ccccc2)oc2cc(O)cc(O)c12 [GALANGIN]	159 µg/mL (≈ 587 µM)
CC1=CC(=O)[C@@H](O)[C@]2(C)[C@H]3[C@@H](O)[C@H](O)[C@]4(C)OC[C@@]35[C@@H](C[C@@H]12)OC(=O)[C@H](O)[C@]54O [BRUCEINE D]	0.386 µg/mL (≈ 0.941 µM)
C/C=C1/CN2CC[C@]34c5ccccc5N(C(C)=O)[C@H]3[C@H](C=O)[C@H]1C[C@H]24 [ISORETULINAL]	24.1 µg/mL (≈ 71.8 µM)
COc1cc2c3c(c1O)-c1c(ccc(OC)c1OC)C[C@@H]3NCC2 [NORCORYDINE]	50 µg/mL (≈ 153 µM)
COC1=C[C@]23CCN(C)[C@H](Cc4cc(OC)c(OC)cc42)C3=CC1=O	50.1 µg/mL (≈ 147 µM)
COC(=O)[C@@]12OC[C@]34[C@H]([C@@H](O)[C@@H]1O)[C@@]1(C)CC(=O)C(O)=C(C)[C@@H]1C[C@H]3OC(=O)[C@H](OC(=O)/C=C(\C)C(C)C)[C@@H]24 [BRUCEANTIN]	0.019 µg/mL (≈ 0.0346 µM)
COC1=C[C@]23CCN(C)[C@H](Cc4ccc(OC)c(O)c42)C3=CC1=O [SALUTARIDINE]	50 µg/mL (≈ 153 µM)
COC(=O)[C@@]12OC[C@]34[C@H]([C@@H](O)[C@@H]1O)[C@@]1(C)CC(=O)C(O)=C(C)[C@@H]1C[C@H]3OC(=O)[C@H](OC(=O)CC(C)C)[C@@H]24 [BRUCEINE A]	0.097 µg/mL (≈ 0.186 µM)
O=c1c(O)c(-c2cc(O)c(O)c(O)c2)oc2cc(O)cc(O)c12 [MYRICETIN]	115 µg/mL (≈ 362 µM)
COc1c(OC)c(O)c2c(=O)cc(-c3ccc(O)cc3)oc2c1OC [XANTHOMICROL]	275 µg/mL (≈ 798 µM)
